Laboratory results from patent US7973062B2, “Androgen receptor-ablative agents” (The Ohio State University Research Foundation, priority 2008, dated 2011).

Experiments:
Assay type in all cases: cell-based
AR promoter = assay: AR promoter-luciferase reporter assay in transiently transfected LNCaP cells; settings: compounds at 10 μM, 48 h, ciglitazone and Δ2CG at 20 μM
Source text: (§1) Transfection and Luciferase assay. The 3.6-kilobase AR promoter-linked reporter plasmid p-3600ARCAT was kindly provided by Dr. Chawnshang Chang (University of Rochester Medical Center, Rochester, N.Y.). The AR promoter gene (−3600 to +550) encompassing the transcription start site was isolated by using PCR to generate hAR-luc with suitable primers. The fragment was subcloned into the pGL3 luciferase reporter vector (Promega, Madison, Wis.) at KpnI and BglII in the multiple cloning site. The PPRE-x3-TK-Luc reporter vector contains three copies of the PPAR-response element (PPRE) upstream of the thymidine kinase promoter-luciferase fusion gene and was kindly provided by Dr. Bruce Spiegelman (Harvard University, Cambridge, Mass.). The pCMVSp1 plasmid was purchased from Origene Technologies, Inc. (Rockville, Md.). LNCaP or PC3 cells were transfected with 5 μg of individual plasmids in an Amaxa Nucleofector using a cell line-specific nucleofector kit according to the manufacturer's protocol (Amaxa Biosystems, Cologne, Germany), and then seeded in 6-well plates at 5×10^5 cells per well for 48 h. The transfection efficiency was determined to be 70-80% by transfecting cells with 2 μg of pmaxGFP plasmid, followed by fluorescence microscopy to measure GFP expression. For each transfection, herpes simplex virus thymidine kinase promoter-driven Renilla reniformis luciferase was used as an internal control for normalization.
For the reporter gene assay, after transfection, cells were cultured in 24-well plates in 10% FBS-supplemented RPMI 1640 medium for 48 h, subject to different treatments for the indicated times, collected, and lysed with passive lysis buffer (Promega). Fifty-μl aliquots of the lysates were added to 96-well plates, and luciferase activity was monitored after adding 100 μl of luciferase substrate (Promega) each well by using a MicroLumatPlus LB96V luminometer (Berthold Technologies, Oak Ridge, Tenn.) with the WinGlow software package. All transfection experiments were carried out in six replicate.

[1] = tested on: LNCaP androgen-responsive prostate cancer cells; assay: MTT cell viability assay, LNCaP cells; settings: 48 h
Description: Cell Counting and Cell Viability Assay. LNCaP or PC-3 cells were placed in six-well plates (2.5×10^5 cells/well) in 10% FBS-supplemented RPMI 1640 for 24 h, and treated with various concentrations of compound 12 for additional 24, 48 and 72 h. Cells were then trypsinized and counted by using a Coulter counter (Model Z1 D/T, Beckman Coulter, Fullerton, Calif.). Cell viability was assessed by using the 3-(4,5-dimethylthiazol-2-yl)-2,5-diphenyl-2H-tetrazolium bromide (MTT) assay in six replicates in 96-well plates. LNCaP or PC-3 cells were seeded at 6000 cells per well in 10% FBS-supplemented RPMI 1640 for 24 h, followed by treatments with various compounds in 5% FBS-supplemented RPMI 1640 at the indicated concentrations. Controls received DMSO at a concentration equal to that in drug-treated cells. After the end of incubation, MTT (0.5 mg/ml) in 10% FBS-supplemented RPMI 1640 was added to each well, and cells were incubated at 37° C. for 2 hours. Medium was removed and the reduced MTT dye was solubilized in DMSO (200 μl/well). Absorbance was determined at 570 nm by a 96-well plate reader.

[2] = tested on: androgen receptor (AR) expression; assay: Western blot analysis of AR protein expression in LNCaP cells; settings: for suppression of AR protein expression (in words): 72 h, Western blot
Description: RT-PCR and Immunoblotting. LNCaP cells were cultured in T25 flasks at an initial density of 1×10^6 cells/flask. After exposure to various compounds at the indicated conditions, cells were subject to total RNA isolation by using an RNeasy mini-kit (QIAGEN, Valencia, Calif.). RNA concentrations were determined by measuring absorption at 260 nm in a spectrophotometer. Aliquots of 6 μg of total RNA from each sample were reverse-transcribed to cDNA using an Omniscript RT Kit (QIAGEN) according to the manufacturer's instructions, using suitable primers.
For immunoblotting, protein extracts were prepared by M-PER Mammalian Protein Extraction Reagent (Pierce, Rockford, Ill.) with freshly added 1% phosphatase and protease inhibitor cocktails (Calbiochem) followed by centrifugation at 13,000×g for 10 min. Supernatant was collected and protein concentration was determined by protein assay reagent (Bio-Rad, CA). Protein extracts were then suspended in 2×SDS sample buffer, and subject to 10% SDS-polyacrylamide gels. After electrophoresis, proteins were transferred to nitrocellulose membranes using a semidry transfer cell. The transblotted membrane was washed twice with Tris-buffered saline containing 0.1% Tween 20 (TBST). After blocking with TBST containing 5% nonfat milk for 1 h, the membrane was incubated with mouse monoclonal anti-AR (Santa Cruz) or anti-β-actin (MP Biomedicals) antibodies (diluted 1:1000) in 1% TBST nonfat milk at 4° C. overnight. After incubation with the primary antibody, the membrane was washed three times with TBST for a total of 30 min, followed by incubation with horseradish peroxidase conjugated goat anti-mouse IgG (diluted 1:2500) for 1 h at room temperature. After three thorough washes with TBST for a total of 30 min, the immunoblots were visualized by enhanced chemiluminescence.

[3] = tested on: PARP cleavage, caspase 3 and caspase 7 activation; assay: Western blot of apoptosis-related biomarkers in LNCaP cells; settings: 72 h
PPARγ = biological target: T1, PPARγ (Homo sapiens, UniProt P37231); assay: PPRE-luciferase reporter assay (PPRE-x3-TK-Luc) in PC-3 cells; settings: PC-3 cells transfected with PPRE-x3-TK-Luc
T1 construct: In PC-3 cells transfected with a reporter construct (PPRE-x3-TK-Luc); endogenous in cells; host or cells: PC-3
T1 sequence (P37231 1-505): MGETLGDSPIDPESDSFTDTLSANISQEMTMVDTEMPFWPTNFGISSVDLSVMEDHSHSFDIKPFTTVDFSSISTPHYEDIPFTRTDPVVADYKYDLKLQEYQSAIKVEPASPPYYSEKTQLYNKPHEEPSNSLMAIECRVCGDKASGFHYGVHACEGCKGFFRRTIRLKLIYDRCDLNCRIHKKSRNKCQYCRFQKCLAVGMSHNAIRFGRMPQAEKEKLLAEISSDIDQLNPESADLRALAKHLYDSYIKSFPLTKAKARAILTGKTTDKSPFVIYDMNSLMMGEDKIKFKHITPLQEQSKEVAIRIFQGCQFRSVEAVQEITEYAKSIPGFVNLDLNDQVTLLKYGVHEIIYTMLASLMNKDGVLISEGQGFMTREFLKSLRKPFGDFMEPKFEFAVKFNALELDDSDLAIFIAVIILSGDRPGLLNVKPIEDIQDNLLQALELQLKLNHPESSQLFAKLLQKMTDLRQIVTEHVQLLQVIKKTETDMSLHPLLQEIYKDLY
Source text: as §1, with “The transfection efficiency was determined to be 70-80% by transfecting cells with 2 μg of pmaxGFP plasmid, followed by fluorescence microscopy to measure GFP expression.” left out
Fifty-μl aliquots of the lysates were added to 96-well plates, and luciferase activity was monitored after adding 100 μl of luciferase substrate (Promega) each well by using a MicroLumatPlus LB96V luminometer (Berthold Technologies, Oak Ridge, Tenn.) with the WinGlow software package. All transfection experiments were carried out in six replicate.

## CC1(CN2C(=O)S/C(=C\c3cccc(O)c3)C2=O)CCCCC1 [Compound 11, 5-(3-Hydroxy-benzylidene)-3-(1-methyl-cyclohexylmethyl)-thiazolidine-2,4-dione]
AR promoter
  suppression of AR promoter-luciferase activity / AR transcription (in words): abolished the ability to suppress
[1]
  inhibition of LNCaP cell viability (in words): abolished the ability to suppress

## CC1(CN2C(=O)S/C(=C\c3cc(Br)c(O)c(Br)c3)C2=O)CCCCC1 [Compound 16, 5-(3,5-Dibromo-4-hydroxy-benzylidene)-3-(1-methyl-cyclohexylmethyl)-thiazolidine-2,4-dione]
[2]; 72-h exposure, Western blot (FIG. 4C), read-out: IC50 for suppressing AR expression
  IC50: ~4 µM
[3]
  apoptosis-related biomarkers: PARP cleavage, proteolytic activation of caspase 3 and caspase 7: dose-dependent effects
AR promoter
  suppression of AR promoter-luciferase activity / AR transcription (in words): optimal agents
[1]
  inhibition of LNCaP cell viability (in words): optimal agents
PPARγ
  PPARγ activation (in words): lacked appreciable activity

## CC1(CN2C(=O)S/C(=C\c3ccc(O)cc3)C2=O)CCCCC1 [Compound 9, 5-(4-Hydroxy-benzylidene)-3-(1-methyl-cyclohexylmethyl)-thiazolidine-2,4-dione]
[2]; 10% FBS
  suppression of AR protein expression (in words): dose-dependent effect on suppressing AR protein expression
AR promoter
  suppression of AR promoter-luciferase activity / AR transcription (in words): enhanced AR-ablating activity

## CC1(CN2C(=O)S/C(=C\c3ccccc3O)C2=O)CCCCC1 [Compound 10, 5-(2-Hydroxy-benzylidene)-3-(1-methyl-cyclohexylmethyl)-thiazolidine-2,4-dione]
AR promoter
  suppression of AR promoter-luciferase activity / AR transcription (in words): abolished the ability to suppress
[1]
  inhibition of LNCaP cell viability (in words): abolished the ability to suppress

## CC1(CN2C(=O)SC(Cc3ccc(O)c(C(F)(F)F)c3)C2=O)CCCCC1 (stereo not shown) [Compound 20, 5-(4-Hydroxy-3-trifluoromethyl-benzyl)-3-(1-methyl-cyclohexylmethyl)-thiazolidine-2,4-dione]
[2]; 10% FBS
  suppression of AR protein expression (in words): retained the ability to suppress AR expression and cell viability, though with slightly lower potency
[1]
  inhibition of LNCaP cell viability (in words): retained the ability to suppress AR expression and cell viability, though with slightly lower potency

## CC1(COc2cccc(/C=C3\SC(=O)NC3=O)c2)CCCCC1 [Compound 1, 5-[3-(1-Methyl-cyclohexylmethoxy)-benzylidene]-thiazolidine-2,4-dione]
[2]; 10% FBS
  suppression of AR protein expression (in words): dose-dependent effect on suppressing AR protein expression
AR promoter
  suppression of AR promoter-luciferase activity / AR transcription (in words): enhanced AR-ablating activity

## CCOc1cc(/C=C2\SC(=O)NC2=O)ccc1OCC1(C)CCCCC1 [Compound 6, 5-[3-Ethoxy-4-(1-methyl-cyclohexylmethoxy)-benzylidene]-thiazolidine-2,4-dione]
[2]; 10% FBS
  suppression of AR protein expression (in words): dose-dependent effect on suppressing AR protein expression

## CC1(COc2ccc(C=C3SC(=O)NC3=O)cc2)CCCCC1 [Δ2CG, reference compound]
[2]; 10% FBS
  suppression of AR protein expression (in words): modestly higher potency than ciglitazone
[2]; 10% FBS, Western blot (FIG. 2A)
  concentration required for complete suppression of AR protein expression: approximately 30 μM
PPARγ
  PPARγ activation (in words): lacked appreciable activity
